Assay results as given in patent US9499550B2 (BRISTOL-MYERS SQUIBB COMPANY, priority 2012, dated 2016).
Where two headings read alike, the source gives them in different places.

Key:
[1] = system: HCV genotype 1b (Con1) replicon in HUH-7 cells; test: HCV replicon luciferase reporter assay, genotype 1b; type: cell-based; conditions: Hepatitis C virus, Huh-7, 72 h, 3 days incubation
In short: (§1)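 Replicon inhibition for both genotypes was measured as Renilla luciferase signal (EnduRen, 7.5 μM final, 2 h) after 3-day, 37° C exposure of replicon-bearing HUH-7 cells in 4% FCS DMEM, 0.5% DMSO. The 1b construct carries S1179I; the 1a H77 construct carries P1496L and S2204I. Twenty-point, 3-fold dilutions were fitted four-parametrically for EC50, and CC50 was taken from multiplexed Cell Titer-Blue.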

[2] = system: HCV genotype 1a (H77 strain) replicon in HUH-7 cells; test: HCV replicon luciferase reporter assay, genotype 1a; type: cell-based; conditions: Hepatitis C virus, Huh-7, 72 h, 3 days incubation
In short: as §1

[3] = HCV genotype 1b replicon luciferase assay, range class, read-out: LE_1b (EC50, range)
[4] = HCV genotype 1a replicon luciferase assay, range class, read-out: LE_1a (EC50, range)
[5] = HCV genotype 1b replicon luciferase, read-out: LE_1b (EC50, range)
[6] = HCV genotype 1a replicon luciferase, read-out: LE_1a (EC50, range)
[7] = GETYPE1B, HCV genotype 1b replicon luciferase, read-out: LE_1b (EC50, range)
[8] = GETYPE1A, HCV genotype 1a replicon luciferase, read-out: LE_1a (EC50, range)

In the case of `COc1cnc(O[C@@H]2C[C@H]3C(=O)N[C@]4(C(=O)NS(=O)(=O)C5(CF)CC5)C[C@H]4/C=C\CC[C@H](C)C[C@@H](C)[C@H](NC(=O)OC4(C)CCCOC4)C(=O)N3C2)c2ccccc12` (stereo partly drawn) [Compound 1055, 3-methyltetrahydro-2H-pyran-3-yl((2R,6S,7R,9S,13aS,14aR,16aS,Z)-14a-(((1-(fluoromethyl)cyclopropyl)sulfonyl)carbamoyl)-2-((4-methoxyisoquinolin-1-yl)oxy)-7,9-dimethyl-5,16-dioxo-1,2,3,5,6,7,8,9,10,11,13a,14,14a,15,16,16a-hexadecahydrocyclopropa[e]pyrrolo[1,2-a][1,4]diazacyclopentadecin-6-yl)carbamate], the EC50 [1, 3] is reported as under 5.46 nM and the EC50 [2, 4] is reported as under 5.46 nM.
Work on `COc1ccc2c(O[C@@H]3C[C@H]4C(=O)N[C@]5(C(=O)NS(=O)(=O)C6(C)CC6)C[C@H]5/C=C\CC[C@@H](C)C[C@@H](C)[C@H](NC(=O)OC(C)(C)C(C)(F)F)C(=O)N4C3)nc(OC(C)C)cc2c1` [Compound 3204, 3,3-difluoro-2-methylbutan-2-yl((2R,6S,7R,9R,13aS,14aR,16aS,Z)-2-((3-isopropoxy-6-methoxyisoquinolin-1-yl)oxy)-7,9-dimethyl-14a-(((1-methylcyclopropyl)sulfonyl)carbamoyl)-5,16-dioxo-1,2,3,5,6,7,8,9,10,11,13a,14,14a,15,16,16a-hexadecahydrocyclopropa[e]pyrrolo[1,2-a][1,4]diazacyclopentadecin-6-yl)carbamate] yielded an EC50 [1, 5] of 1.01 to 5 nM and an EC50 [2, 6] of 0.51 to 1 nM.
`COc1ccc2c(Cl)cc(O[C@@H]3C[C@H]4C(=O)N[C@]5(C(=O)NS(=O)(=O)C6(CF)CC6)C[C@H]5/C=C\CC[C@@H](C)C[C@@H](C)[C@H](NC(=O)OC(C)(C)C(F)(F)F)C(=O)N4C3)nc2c1` [Compound 4200] gave an EC50 [1, 7] of under 5.46 nM and an EC50 [2, 8] of 4.82 to 103 nM.
For `[2H]C([2H])([2H])C(OC(=O)N[C@@H]1C(=O)N2C[C@H](Oc3nnc(OC)c4ccccc34)C[C@H]2C(=O)N[C@]2(C(=O)NS(=O)(=O)C3(C)CC3)C[C@H]2/C=C\CC[C@@H](C)C[C@H]1CC)(C([2H])([2H])[2H])C(F)(F)F` [Compound 5020], the EC50 [1, 5] was under 5.46 nM and the EC50 [2, 6] was under 5.46 nM.
Molecule `COc1ccc2c(O[C@@H]3C[C@H]4C(=O)N[C@]5(C(=O)NS(=O)(=O)C6(F)CC6)C[C@H]5/C=C\CC[C@@H](C)C[C@@H](C)[C@H](NC(=O)OCC(C)(C)C)C(=O)N4C3)nccc2c1` [Compound 4022] has an EC50 [1, 5] of under 5.46 nM and an EC50 [2, 6] of under 5.46 nM.
`CC[C@@H]1C[C@H](C)CC/C=C\[C@@H]2C[C@@]2(C(=O)NS(=O)(=O)C2CC2)NC(=O)[C@@H]2C[C@@H](Oc3ncc(C(=O)O)c4cc(OC)ccc34)CN2C(=O)[C@H]1NC(=O)OC(C)(C)C(F)(F)F` [Compound 4279, 1-(((2R,6S,7R,9R,13aS,14aR,16aS,Z)-14a-((cyclopropylsulfonyl)carbamoyl)-7-ethyl-9-methyl-5,16-dioxo-6-((((1,1,1-trifluoro-2-methylpropan-2-yl)oxy)carbonyl)amino)-1,2,3,5,6,7,8,9,10,11,13a,14,14a,15,16,16a-hexadecahydrocyclopropa[e]pyrrolo[1,2-1,2-a][1,4]diazacyclopentadecin-2-yl)oxy)-6-methoxyisoquinoline-4-carboxylic acid] showed an EC50 [1, 5] of 35 to 620 nM and an EC50 [2, 6] of 35 to 620 nM.
`CC(C)Oc1cc2ccccc2c(O[C@@H]2C[C@H]3C(=O)N[C@]4(C(=O)NS(=O)(=O)C5(CF)CC5)C[C@H]4/C=C\CC[C@@H](C)C[C@@H](C)[C@H](NC(=O)OC(C)(C)C(F)(F)F)C(=O)N3C2)n1` [Compound 6116, 1,1,1-trifluoro-2-methylpropan-2-yl((2R,6S,7R,9R,13aS,14aR,16aS,Z)-14a-(((1-(fluoromethyl)cyclopropyl)sulfonyl)carbamoyl)-2-((3-isopropoxyisoquinolin-1-yl)oxy)-7,9-dimethyl-5,16-dioxo-1,2,3,5,6,7,8,9,10,11,13a,14,14a,15,16,16a-hexadecahydrocyclopropa[e]pyrrolo[1,2-a][1,4]diazacyclopentadecin-6-yl)carbamate] showed an EC50 [1, 5] of 1.01 to 5 nM and an EC50 [2, 6] of 1.01 to 5 nM.
Molecule `COc1ccc2nc(C(C)C)c(O[C@@H]3C[C@H]4C(=O)N[C@]5(C(=O)NS(=O)(=O)C6CC6)C[C@H]5/C=C\CC[C@H](C)C[C@@H](C)[C@H](NC(=O)OC(C)(C)C(F)(F)F)C(=O)N4C3)nc2c1` [Compound 4318] has an EC50 [1, 7] of 1.01 to 5 nM and an EC50 [2, 8] of 5.01 to 35 nM.
Work on `CCOc1cc2ccnc(O[C@@H]3C[C@H]4C(=O)N[C@]5(C(=O)NS(=O)(=O)C6(CF)CC6)C[C@H]5/C=C\CC[C@@H](C)C[C@@H](C)[C@H](NC(=O)OC(C)(C)C(C)(F)F)C(=O)N4C3)c2cc1F` [Compound 5415, 3,3-difluoro-2-methylbutan-2-yl((2R,6S,7R,9R,13aS,14aR,16aS,Z)-2-((6-ethoxy-7-fluoroisoquinolin-1-yl)oxy)-14a-(((1-(fluoromethyl)cyclopropyl)sulfonyl)carbamoyl)-7,9-dimethyl-5,16-dioxo-1,2,3,5,6,7,8,9,10,11,13a,14,14a,15,16,16a-hexadecahydrocyclopropa[e]pyrrolo[1,2-a][1,4]diazacyclopentadecin-6-yl)carbamate] yielded an EC50 [1, 5] of 0.51 to 1 nM and an EC50 [2, 6] of 1.01 to 5 nM.
Work on `COc1cc(O[C@@H]2C[C@H]3C(=O)N[C@]4(C(=O)NS(=O)(=O)C5(C)CC5)C[C@H]4/C=C\CC[C@@H](C)C[C@@H](C)[C@H](NC(=O)OC(C)(C)C(C)(F)F)C(=O)N3C2)c2cc(F)c(OC)cc2n1` [Compound 1204] yielded an EC50 [1, 7] of 0.51 to 1 nM and an EC50 [2, 8] of 1.01 to 5 nM.
Work on `COc1cc2ccnc(O[C@@H]3C[C@H]4C(=O)N[C@]5(C(=O)NS(=O)(=O)C6(CF)CC6)C[C@H]5/C=C\CC[C@@H](C)C[C@@H](C)[C@H](NC(=O)c5ccc(F)cc5F)C(=O)N4C3)c2cc1F` [Compound 4097, (2R,6S,7R,9R,13aS,14aR,16aS,Z)-6-(2,4-difluorobenzamido)-2-(7-fluoro-6-methoxyisoquinolin-1-yloxy)-N-(1-(fluoromethyl)cyclopropylsulfonyl)-7,9-dimethyl-5,16-dioxo-1,2,3,5,6,7,8,9,10,11,13a,14,14a,15,16,16a-hexadecahydrocyclopropa[e]pyrrolo[1,2-a][1,4]diazacyclopentadecine-14a-carboxamide] yielded an EC50 [1, 5] of under 5.46 nM and an EC50 [2, 6] of under 5.46 nM.
With `COc1cnc(O[C@@H]2C[C@H]3C(=O)N[C@]4(C(=O)NS(=O)(=O)C5(CF)CC5)C[C@H]4/C=C\CC[C@H](C)C[C@@H](C)[C@H](NC(=O)OC(C)(C)C)C(=O)N3C2)c2ccc(N(C)C)cc12` [Compound 3141, tert-butyl ((2R,6S,7R,9S,13aS,14aR,16aS,Z)-2-((6-(dimethylamino)-4-methoxyisoquinolin-1-yl)oxy)-14a-(((1-(fluoromethyl)cyclopropyl)sulfonyl)carbamoyl)-7,9-dimethyl-5,16-dioxo-1,2,3,5,6,7,8,9,10,11,13a,14,14a,15,16,16a-hexadecahydrocyclopropa[e]pyrrolo[1,2-a][1,4]diazacyclopentadecin-6-yl)carbamate] the EC50 [1, 3] was under 5.46 nM and the EC50 [2, 4] was under 5.46 nM.
In the case of `COc1ccc2c(O[C@@H]3C[C@H]4C(=O)N[C@]5(C(=O)NS(=O)(=O)C6CC6)C[C@H]5/C=C\CC[C@H](C)C[C@@H](C)[C@H](NC(=O)O[C@@H]5C[C@@H]6C[C@@H]6C5)C(=O)N4C3)nc(-c3ccc(OC)c(F)c3)cc2c1` [Compound 3057, (1R,3r,5S)-bicyclo[3.1.0]hexan-3-yl((2R,6S,7R,9S,13aS,14aR,16aS,Z)-14a-((cyclopropylsulfonyl)carbamoyl)-2-((3-(3-fluoro-4-methoxyphenyl)-6-methoxyisoquinolin-1-yl)oxy)-7,9-dimethyl-5,16-dioxo-1,2,3,5,6,7,8,9,10,11,13a,14,14a,15,16,16a-hexadecahydrocyclopropa[e]pyrrolo[1,2-a][1,4]diazacyclopentadecin-6-yl)carbamate], the EC50 [1, 3] is reported as under 5.46 nM and the EC50 [2, 4] is reported as under 5.46 nM.
For `CCOc1ccc2nc(Cl)c(O[C@@H]3C[C@H]4C(=O)N[C@]5(C(=O)NS(=O)(=O)C6(C)CC6)C[C@H]5/C=C\CC[C@@H](C)C[C@@H](C)[C@H](NC(=O)OC(C)(C)C(F)(F)F)C(=O)N4C3)c(Cl)c2c1` [Compound 4312], the EC50 ([1]; GETYPE1B, HCV genotype 1b replicon luciferase, read-out: LE_1b (EC50)) was 12.2 nM, the EC50 [1, 7] was 5.01 to 35 nM and the EC50 ([2]; GETYPE1A, HCV genotype 1a replicon luciferase, read-out: LE_1a (EC50)) was 20.9 nM. The EC50 [2, 8] was 5.01 to 35 nM.
`C[C@@H]1CC/C=C\[C@@H]2C[C@@]2(C(=O)NS(=O)(=O)C2(F)CC2)NC(=O)[C@@H]2C[C@@H](Oc3ncc(OC4CC4)c4ccccc34)CN2C(=O)[C@@H](NC(=O)OC(C)(C)C)[C@H](C)C1` [Compound 4225, tert-butyl (2R,6S,7R,9R,13aS,14aR,16aS,Z)-2-(4-cyclopropoxyisoquinolin-1-yloxy)-14a-(1-fluorocyclopropylsulfonylcarbamoyl)-7,9-dimethyl-5,16-dioxo-1,2,3,5,6,7,8,9,10,11,13a,14,14a,15,16,16a-hexadecahydrocyclopropa[e]pyrrolo[1,2-a][1,4]diazacyclopentadecin-6-ylcarbamate] showed an EC50 [1, 5] of under 5.46 nM and an EC50 [2, 6] of under 5.46 nM.
